US20240280589A1, “USE OF FIBRONECTIN IN PREDICTING PREECLAMPSIA” (Sinai Health System, priority 2023, published 2024)

Assays:
Assay type in all cases: cell-based, human
JEG3 cells [1] = assay: Western blot for fibronectin in sEVs from JEG3 cell conditioned media
Procedure: Subsequent Western blotting was performed.

preeclampsia pMSCs = assay: Exposure of preeclampsia placental mesenchymal stromal cells (pMSCs)
JEG3 cells [2] = assay: Immunofluorescence co-localization of fibronectin with CD63/RAB7 in JEG3 cells
[3] = test system: placental villous explants; assay: Fibronectin in sEVs from placental villous explant culture; settings: E-PE villous explants maintained at 3% O2, Hinokitiol
Procedure: Villous explants were isolated and cultured in 12-well plates with mesh inserts, from term control (n=3) and E-PE placentae (n=3). Term explants were maintained at normoxia (8% O2) or hypoxia (3% O2), while E-PE explants were maintained at 3% O2 (constituting their normoxia) and treated with […] Hinokitiol. Following incubation with their respective treatments, explant tissue was snap-frozen in liquid nitrogen for protein extraction and downstream analyses, while small extracellular vesicles (sEVs) were isolated from conditioned media by ultrafiltration using Amicon® Ultra-4 Centrifugal Filter Units (UFC8100, Millipore Sigma). […] Subsequent Western blotting was performed.

SMILES: CC(C)c1cccc(=O)c(O)c1 [Hinokitiol]
- sEV fibronectin content (JEG3 cells [1]; JEG3 cells at 3% O2, 24 hours, 1 μM, normalized to CD63): significantly reduced sEV fibronectin content to control levels
- sEV fibronectin levels (JEG3 cells [1]; JEG3 cells at 21% O2): no discernible effect
- fibronectin fibrillar deposition (preeclampsia pMSCs): improved
- labile (useable) intracellular iron pool (preeclampsia pMSCs): restored
- Pearson's Correlation Coefficient between fibronectin and CD63 (JEG3 cells [2]; 3% O2 + 1 μM Hinokitiol): 0.31
- fibronectin co-localization with late endosomal marker RAB7 and sEV marker CD63 (JEG3 cells [2]; 3% O2, relative to hypoxia alone): attenuated fibronectin co-localization
- fibronectin increase in explant-derived sEVs [3]: attenuated
